Reference: the supplement of paper PMC11451515

Columns and labels:
Conditions in all cases: 48 h
[1] = test system: NOMO1; assay: AUC of viability dose-response curve (% viability x log10 dose units); higher = less sensitive
Outline: (§1)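 In 1536-well plates, leukemia cells adapted to each medium (500 or 1000 cells/well) were exposed for 48 h at 37°C to library compounds in DMSO across 11 threefold doses, 47 μM down to 0.79 nM. Viability was read by CellTiter-Glo One luminescence and normalised per plate to DMSO and cell-free wells. A four-parameter log-logistic fit over log10 doses was integrated by trapezoidal rule. This yielded the area under the curve, with over-full-viability curves scaled and quality-control failures dropped.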

[2] = test system: P12-Ichikawa; assay: as above
Outline: as §1

[3] = test system: SEM cells; assay: as above
Outline: as §1

[4] = test system: SEM cells; assay: cell viability relative to DMSO control; higher = less cytotoxic
Outline: (§2)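 Before seeding, each leukemia line was adapted for at least four passages in each medium. NOMO1 or SEM cells (500 cells/well) and P12-Ichikawa cells (1000 cells/well) went into 1536-well plates at 5 μl, then received library compounds in DMSO by pin dosing across 11 threefold concentrations, 47 μM to 0.79 nM. Readout was CellTiter-Glo One luminescence after 48 h at 37°C, and viability is given as a per-plate percentage of DMSO wells, with cell-free wells as background.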

[5] = test system: NOMO1; assay: as above
Outline: as §2

[6] = test system: P12-Ichikawa; assay: as above
Outline: as §2

Cc1c(O)cccc1C(=O)N[C@@H](CSc1ccccc1)[C@H](O)CN1C[C@H]2CCCC[C@H]2C[C@H]1C(=O)NC(C)(C)C
AUC of viability dose-response curve
Conditions | [1] | [2] | [3]
HPLM + 10% dialyzed FBS | 465 | 447 | 426
RPMI 5 mM glucose + 10% FBS | 459 | 459 | 453
RPMI 5 mM glucose + 10% dialyzed FBS | 455 | 461 | 455

C=C1/C(=C\C=C2/CCC[C@]3(C)[C@@H]([C@H](C)/C=C/[C@H](C)C(C)C)CC[C@@H]23)C[C@@H](O)C[C@@H]1O
AUC of viability dose-response curve
Conditions | [1] | [2] | [3]
HPLM + 10% dialyzed FBS | 398 | 399 | 446
RPMI 5 mM glucose + 10% FBS | 423 | 404 | 438
RPMI 5 mM glucose + 10% dialyzed FBS | 416 | 408 | 450

Cc1cc(C[S+](=O)([O-])c2ccccc2)cc(OCc2ccc(CN3CCC[C@@H]3CO)cc2)c1
AUC of viability dose-response curve
Conditions | [1] | [2] | [3]
HPLM + 10% dialyzed FBS | 298 | 305 | 291
RPMI 5 mM glucose + 10% FBS | 321 | 315 | 268
RPMI 5 mM glucose + 10% dialyzed FBS | 323 | 321 | 285

CC(=O)Nc1nc(C)c(-c2ccc(Cl)c([S+](=O)([O-])NCCO)c2)s1
AUC of viability dose-response curve
Conditions | [1] | [2] | [3]
HPLM + 10% dialyzed FBS | 364 | 374 | 366
RPMI 5 mM glucose + 10% FBS | 385 | 326 | 345
RPMI 5 mM glucose + 10% dialyzed FBS | 362 | 340 | 344

CC(C)C[C@H](NC(=O)CNC(=O)c1cc(Cl)ccc1Cl)B1OC(=O)CC(CC(=O)O)(C(=O)O)O1 (stereo not given in full)
cell viability [%], [4]
Conditions | HPLM + 10% dialyzed FBS | RPMI 5 mM glucose + 10% FBS
0.000781 µM | 101 | 120
0.00234 µM | 120 | 132
0.00702 µM | 125 | 124
0.0211 µM | 145 | 125
0.0632 µM | 128 | 99.9
0.19 µM | 16 | 13.3
0.569 µM | 8.29 | 8.91
1.71 µM | 7.41 | 8.18
5.12 µM | 5.78 | 6.61
15.4 µM | 4.49 | 4.78
46.1 µM | 4.53 | 4.54

AUC of viability dose-response curve
Conditions | [1] | [2] | [3]
HPLM + 10% dialyzed FBS | 276 | 270 | 231
RPMI 5 mM glucose + 10% FBS | 278 | 269 | 221
RPMI 5 mM glucose + 10% dialyzed FBS | 280 | 269 | 235

CCc1cccc(CC)c1NC(=O)N1Cc2[nH]nc(NC(=O)c3ccc(N4CCN(C)CC4)cc3)c2C1
[4], HPLM + 10% dialyzed FBS
Conditions | cell viability [%]
0.000781 µM | 100
0.00234 µM | 121
0.00702 µM | 130
0.0211 µM | 128
0.0632 µM | 133
0.19 µM | 138
0.569 µM | 113
1.71 µM | 89.2
5.12 µM | 57.5
15.4 µM | 22.1
46.1 µM | 7.86

AUC of viability dose-response curve
Conditions | [1] | [2] | [3]
HPLM + 10% dialyzed FBS | 415 | 356 | 372
RPMI 5 mM glucose + 10% FBS | 403 | 361 | 341
RPMI 5 mM glucose + 10% dialyzed FBS | 394 | 373 | 344

C[N]1C2=C(SC(=C2)[S+](C)[O-])C\3=C1C(=O)N(CC4=CC(=CC=C4)N)\N=C3 (stereo not given)
AUC of viability dose-response curve
Conditions | HPLM + 10% dialyzed FBS | RPMI 5 mM glucose + 10% FBS | RPMI 5 mM glucose + 10% dialyzed FBS
[2] | 414 | 404 | 392
[3] | 426 | 426 | 403

CC(C)Nc1cc(-c2c[nH]c(C(=O)N[C@H](CO)c3cccc(Cl)c3)c2)c(Cl)cn1
[4], HPLM + 10% dialyzed FBS
Conditions | cell viability [%]
0.000781 µM | 105
0.00234 µM | 118
0.00702 µM | 125
0.0211 µM | 123
0.0632 µM | 141
0.19 µM | 133
0.569 µM | 144
1.71 µM | 120
5.12 µM | 98.7
15.4 µM | 94.1
46.1 µM | 11.3

AUC of viability dose-response curve
Conditions | [1] | [2] | [3]
HPLM + 10% dialyzed FBS | 393 | 423 | 436
RPMI 5 mM glucose + 10% FBS | 383 | 396 | 422
RPMI 5 mM glucose + 10% dialyzed FBS | 371 | 394 | 400

CCN(CC)CCCCNc1nc2cc(Cl)c(Cl)cc2nc1-c1ccc(-c2cccs2)s1
cell viability [%]
Conditions | [4] | [5] | [6]
HPLM + 10% dialyzed FBS, 0.000781 µM | 83.7 | 101 | 94.2
HPLM + 10% dialyzed FBS, 0.00234 µM | 110 | 124 | 114
HPLM + 10% dialyzed FBS, 0.00702 µM | 27.8 | 123 | 75.6
HPLM + 10% dialyzed FBS, 0.0211 µM | 121 | 128 | 114
HPLM + 10% dialyzed FBS, 0.0632 µM | 110 | 111 | 109
HPLM + 10% dialyzed FBS, 0.19 µM | 102 | 137 | 134
HPLM + 10% dialyzed FBS, 0.569 µM | 115 | 137 | 118
HPLM + 10% dialyzed FBS, 1.71 µM | 114 | 121 | 121
HPLM + 10% dialyzed FBS, 5.12 µM | 107 | 138 | 115
HPLM + 10% dialyzed FBS, 15.4 µM | 124 | 98.4 | 123
HPLM + 10% dialyzed FBS, 46.1 µM | 8.47 | 3.87 | 59.9
RPMI 5 mM glucose + 10% FBS, 0.000781 µM | 93.7 | 97 | 99.9
RPMI 5 mM glucose + 10% FBS, 0.00234 µM | 94.9 | 103 | 119
RPMI 5 mM glucose + 10% FBS, 0.00702 µM | 8.03 | 111 | 64.8
RPMI 5 mM glucose + 10% FBS, 0.0211 µM | 101 | 115 | 123
RPMI 5 mM glucose + 10% FBS, 0.0632 µM | 96.8 | 123 | 120
RPMI 5 mM glucose + 10% FBS, 0.19 µM | 102 | 119 | 125
RPMI 5 mM glucose + 10% FBS, 0.569 µM | 114 | 123 | 134
RPMI 5 mM glucose + 10% FBS, 1.71 µM | 98.9 | 102 | 125
RPMI 5 mM glucose + 10% FBS, 5.12 µM | 107 | 117 | 123
RPMI 5 mM glucose + 10% FBS, 15.4 µM | 93.9 | 113 | 114
RPMI 5 mM glucose + 10% FBS, 46.1 µM | 5.71 | 5.9 | 5.94
RPMI 5 mM glucose + 10% dialyzed FBS, 0.000781 µM | 106 | 98.3 | 107
RPMI 5 mM glucose + 10% dialyzed FBS, 0.00234 µM | 121 | 112 | 116
RPMI 5 mM glucose + 10% dialyzed FBS, 0.00702 µM | 26.4 | 108 | 78
RPMI 5 mM glucose + 10% dialyzed FBS, 0.0211 µM | 130 | 112 | 118
RPMI 5 mM glucose + 10% dialyzed FBS, 0.0632 µM | 118 | 110 | 120
RPMI 5 mM glucose + 10% dialyzed FBS, 0.19 µM | 126 | 119 | 129
RPMI 5 mM glucose + 10% dialyzed FBS, 0.569 µM | 116 | 114 | 123
RPMI 5 mM glucose + 10% dialyzed FBS, 1.71 µM | 116 | 108 | 127
RPMI 5 mM glucose + 10% dialyzed FBS, 5.12 µM | 126 | 112 | 121
RPMI 5 mM glucose + 10% dialyzed FBS, 15.4 µM | 131 | 108 | 108
RPMI 5 mM glucose + 10% dialyzed FBS, 46.1 µM | 8.47 | 5.42 | 6.07

[1]
Conditions | AUC of viability dose-response curve
HPLM + 10% dialyzed FBS | 444
RPMI 5 mM glucose + 10% FBS | 454
RPMI 5 mM glucose + 10% dialyzed FBS | 453
